Measured values published in the NIST ThermoML archive (doi:10.1016/j.jct.2017.03.027).
± gives the expanded uncertainty stated by the source.

Columns and labels:
[1] = 100 kPa, Liquid, Vibrating tube method
[2] = molar heat capacity at constant pressure; details: 100 kPa, Liquid, Large sample (1 g) DSC
[3] = xn = mol fraction of the nth substance listed; details: 100 kPa, Liquid, Vibrating tube method, x2 = 0
[4] = molar heat capacity at constant pressure; xn = mol fraction of the nth substance listed; details: 100 kPa, Liquid, Large sample (1 g) DSC, x2 = 0

Row | mass density ([1]; 298.15 K) [kg/m3] | mass density ([1]; 308.15 K) [kg/m3] | mass density ([1]; 318.15 K) [kg/m3] | mass density ([1]; 328.15 K) [kg/m3] | molar heat capacity at constant pressure ([2]; 298.6 K) [J/K/mol] | molar heat capacity at constant pressure ([2]; 308.5 K) [J/K/mol] | molar heat capacity at constant pressure ([2]; 318.5 K) [J/K/mol] | molar heat capacity at constant pressure ([2]; 328.4 K) [J/K/mol] | Compound | mass density ([3]; 298.15 K) [kg/m3] | mass density ([3]; 308.15 K) [kg/m3] | mass density ([3]; 318.15 K) [kg/m3] | mass density ([3]; 328.15 K) [kg/m3] | molar heat capacity at constant pressure ([4]; 298.6 K) [J/K/mol] | molar heat capacity at constant pressure ([4]; 308.5 K) [J/K/mol] | molar heat capacity at constant pressure ([4]; 318.5 K) [J/K/mol] | molar heat capacity at constant pressure ([4]; 328.4 K) [J/K/mol]
1 | 852.93 ± 0.71 | 844.89 ± 0.71 | 836.81 ± 0.71 | 828.69 ± 0.71 | 240.3 ± 3.9 | 244.7 ± 4 | 249.4 ± 4.1 | 254.4 ± 4.1 | Cc1ccc(C(C)C)cc1 [1-(1-methylethyl)-4-methylbenzene] |  |  |  |  |  |  |  | 
2 | 785.11 ± 0.71 | 776.44 ± 0.71 | 767.62 ± 0.71 | 758.6 ± 0.71 | 112 ± 1.8 | 116.4 ± 1.9 | 121 ± 2 | 125.6 ± 2 | CCO [ethanol] |  |  |  |  |  |  |  | 
3 |  |  |  |  |  |  |  |  | CCO [ethanol] + Cc1ccc(C(C)C)cc1 | 785.11 ± 0.71 | 776.44 ± 0.71 | 767.62 ± 0.71 | 758.6 ± 0.71 | 112 ± 1.8 | 116.4 ± 1.9 | 121 ± 2 | 125.6 ± 2
